Experimental data taken from patent US20250263395A1, “COMPOUNDS THAT MEDIATE PROTEIN DEGRADATION AND METHODS OF USE THEREOF” (Monte Rosa Therapeutics AG, priority 2022, published 2025).

Columns and labels:
[1] = biological target: CDK2 (Homo sapiens (Human), UniProt P24941); experiment: CDK2 NanoBiT assay (HiBiT-tagged CDK2 degradation); assay type: cell-based; conditions: HEK293, HEK293 clonal line, C-terminal HiBiT tag on CDK2, LgBiT; 24 hours
Outline: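 HEK293 line with CRISPR knock-in C-terminal HiBiT-tagged CDK2 and stable LgBiT, preincubated 16 h with live-cell substrate, then compound-treated 24 h at 37° C, 5% CO2 (30 μM stock). Luminescence normalized to plate negative and positive controls; EC50 from 3-parameter logistic fit, Hill slope 1.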

[2] = biological target: CRBN-DDB1 (Homo sapiens (Human), UniProt Q96SW2); experiment: CRBN HTRF assay (Cy5-Thalidomide probe displacement); assay type: binding; conditions: CRBN-DDB1 2.5 nM, Cy5-Thalidomide 100 nM, 30 min; Ki from geometric mean IC50 by Cheng-Prusoff
Sequence of CRBN-DDB1 (Q96SW2 whole entry): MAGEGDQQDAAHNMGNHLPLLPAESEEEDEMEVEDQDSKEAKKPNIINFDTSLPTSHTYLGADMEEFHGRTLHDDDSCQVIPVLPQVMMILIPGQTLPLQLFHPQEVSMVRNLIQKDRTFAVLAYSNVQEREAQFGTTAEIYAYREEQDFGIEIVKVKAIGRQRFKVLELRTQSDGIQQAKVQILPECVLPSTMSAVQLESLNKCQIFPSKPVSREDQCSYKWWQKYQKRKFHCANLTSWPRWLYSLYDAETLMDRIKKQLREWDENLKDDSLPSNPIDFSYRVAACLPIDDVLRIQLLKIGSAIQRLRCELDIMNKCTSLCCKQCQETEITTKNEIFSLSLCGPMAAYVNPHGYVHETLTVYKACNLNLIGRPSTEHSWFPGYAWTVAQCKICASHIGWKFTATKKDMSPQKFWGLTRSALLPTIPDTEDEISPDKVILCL
Sequence of CRBN-DDB1 (Q16531 whole entry partner): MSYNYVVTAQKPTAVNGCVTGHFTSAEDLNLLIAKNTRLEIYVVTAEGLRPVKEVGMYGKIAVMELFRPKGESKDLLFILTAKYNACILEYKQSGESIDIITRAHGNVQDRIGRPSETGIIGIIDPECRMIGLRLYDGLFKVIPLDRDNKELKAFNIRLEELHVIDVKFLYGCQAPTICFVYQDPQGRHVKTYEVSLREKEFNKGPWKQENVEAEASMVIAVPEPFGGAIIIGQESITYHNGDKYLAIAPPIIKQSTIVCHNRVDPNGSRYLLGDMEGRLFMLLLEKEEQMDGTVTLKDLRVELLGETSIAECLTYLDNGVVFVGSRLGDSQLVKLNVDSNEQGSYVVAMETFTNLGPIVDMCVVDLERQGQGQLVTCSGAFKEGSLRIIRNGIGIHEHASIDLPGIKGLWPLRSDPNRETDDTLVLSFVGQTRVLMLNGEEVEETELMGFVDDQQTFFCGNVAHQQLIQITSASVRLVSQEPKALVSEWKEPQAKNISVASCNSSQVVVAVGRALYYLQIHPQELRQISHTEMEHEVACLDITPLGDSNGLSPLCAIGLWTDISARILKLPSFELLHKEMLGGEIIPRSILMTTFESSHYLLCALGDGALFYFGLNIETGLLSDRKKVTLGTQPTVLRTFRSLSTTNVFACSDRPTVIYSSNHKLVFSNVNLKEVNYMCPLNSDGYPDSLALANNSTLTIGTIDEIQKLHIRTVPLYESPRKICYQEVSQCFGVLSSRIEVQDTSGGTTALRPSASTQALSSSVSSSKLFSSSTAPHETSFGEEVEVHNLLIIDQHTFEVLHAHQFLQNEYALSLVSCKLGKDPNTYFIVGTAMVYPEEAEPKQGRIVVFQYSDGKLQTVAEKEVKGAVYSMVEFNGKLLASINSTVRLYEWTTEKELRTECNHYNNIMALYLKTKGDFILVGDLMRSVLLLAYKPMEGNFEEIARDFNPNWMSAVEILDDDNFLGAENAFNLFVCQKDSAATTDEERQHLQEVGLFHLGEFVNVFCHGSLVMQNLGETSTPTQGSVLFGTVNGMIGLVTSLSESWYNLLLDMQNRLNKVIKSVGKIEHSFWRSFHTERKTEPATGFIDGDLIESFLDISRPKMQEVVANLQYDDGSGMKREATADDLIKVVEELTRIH
Outline: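 HTRF displacement of Cy5-thalidomide probe (100 nM) from His-CRBN-DDB1 (2.5 nM) with anti-His terbium cryptate, in HEPES/NaCl/TCEP/EDTA/Tween20 buffer. 10-point 1:3 compound series, 30 min at ambient temperature; signal normalised to DMSO and lenalidomide controls, IC50 fitted and Ki derived by Cheng-Prusoff.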

| Structure (SMILES) | Dmax [1] [%] | Ki [2] [nM] |
| --- | --- | --- |
| CN(C(=O)C12CC(OC(=O)NC3CN(c4cc(F)c(C5CCC(=O)NC5=O)c(F)c4)C3)(C1)C2)c1ccc(C#N)cc1 (centres unmarked) [Compound 120, 3-((4-cyanophenyl)(methyl)carbamoyl)bicyclo[1.1.1]pentan-1-yl (1-(4-(2,6-dioxopiperidin-3-yl)-3,5-difluorophenyl)azetidin-3-yl)carbamate] | 10 to 50 | ≤ 100 |
| COc1c(N2CC(C)(Nc3nnc(C4CC5(CCC5)C4)o3)C2)ccc(C2CCC(=O)NC2=O)c1F (centres unmarked) [Compound 121, 3-(2-fluoro-3-methoxy-4-(3-methyl-3-((5-(spiro[3.3]heptan-2-yl)-1,3,4-oxadiazol-2-yl)amino)azetidin-1-yl)phenyl)piperidine-2,6-dione] | 10 to 50 | ≤ 100 |
| CC1(CCc2nnc(NC3CN(c4cc(F)c(C5CCC(=O)NC5=O)c(F)c4)C3)o2)CC1 (centres unmarked) [Compound 122, 3-(2,6-difluoro-4-(3-((5-(2-(1-methylcyclopropyl)ethyl)-1,3,4-oxadiazol-2-yl)amino)azetidin-1-yl)phenyl)piperidine-2,6-dione] | 10 to 50 | ≤ 100 |
| CN(C(=O)C12CC(OC(=O)NC3CN(c4cc(F)c(C5CCC(=O)NC5=O)c(F)c4)C3)(C1)C2)c1cccc(C#N)c1 (centres unmarked) [Compound 123, 3-((3-cyanophenyl)(methyl)carbamoyl)bicyclo[1.1.1]pentan-1-yl (1-(4-(2,6-dioxopiperidin-3-yl)-3,5-difluorophenyl)azetidin-3-yl)carbamate] | 10 to 50 | ≤ 100 |
| O=C1CCC(c2c(F)cc(N3CC(Nc4nnc(-c5ccccn5)o4)C3)cc2F)C(=O)N1 (centres unmarked) [Compound 124, 3-(2,6-difluoro-4-(3-((5-(pyridin-2-yl)-1,3,4-oxadiazol-2-yl)amino)azetidin-1-yl)phenyl)piperidine-2,6-dione] | 10 to 50 | ≤ 100 |
| CN(C(=O)C12CC(OC(=O)NC3CN(c4cc(F)c(C5CCC(=O)NC5=O)c(F)c4)C3)(C1)C2)c1ccc(OC(F)(F)F)cc1 (centres unmarked) [Compound 125, 3-(methyl(4-(trifluoromethoxy)phenyl)carbamoyl)bicyclo[1.1.1]pentan-1-yl (1-(4-(2,6-dioxopiperidin-3-yl)-3,5-difluorophenyl)azetidin-3-yl)carbamate] | 50 to 80 | ≤ 100 |

Other lines, results leading:

| Dmax [1] [%] | Ki [2] [nM] | Structure (SMILES) |
| --- | --- | --- |
| 10 to 50 | ≤ 100 | Cc1cccc(N(C)C(=O)C23CC(OC(=O)NC4CN(c5cc(F)c(C6CCC(=O)NC6=O)c(F)c5)C4)(C2)C3)c1C (centres unmarked) [Compound 114, 3-((2,3-dimethylphenyl)(methyl)carbamoyl)bicyclo[1.1.1]pentan-1-yl (1-(4-(2,6-dioxopiperidin-3-yl)-3,5-difluorophenyl)azetidin-3-yl)carbamate] |
| 10 to 50 | ≤ 100 | Cc1c(Cl)cccc1N(C)C(=O)C12CC(OC(=O)NC3CN(c4cc(F)c(C5CCC(=O)NC5=O)c(F)c4)C3)(C1)C2 (centres unmarked) [Compound 115, 3-((3-chloro-2-methylphenyl)(methyl)carbamoyl)bicyclo[1.1.1]pentan-1-yl (1-(4-(2,6-dioxopiperidin-3-yl)-3,5-difluorophenyl)azetidin-3-yl)carbamate] |
| 10 to 50 | ≤ 100 | Cc1ccc(N(C)C(=O)N2CC(OC(=O)NC3CN(c4cc(F)c(C5CCC(=O)NC5=O)c(F)c4)C3)C2)c(C)c1 (centres unmarked) [Compound 116, 1-((2,4-dimethylphenyl)(methyl)carbamoyl)azetidin-3-yl (1-(4-(2,6-dioxopiperidin-3-yl)-3,5-difluorophenyl)azetidin-3-yl)carbamate] |
| 10 to 50 | ≤ 100 | Cc1ccc(N(C)C(=O)C23CC(OC(=O)NC4CN(c5cc(F)c(C6CCC(=O)NC6=O)c(F)c5)C4)(C2)C3)c(C)c1 (centres unmarked) [Compound 117, 3-((2,4-dimethylphenyl)(methyl)carbamoyl)bicyclo[1.1.1]pentan-1-yl (1-(4-(2,6-dioxopiperidin-3-yl)-3,5-difluorophenyl)azetidin-3-yl)carbamate] |
